{
  "source": "paper PMC6614837",
  "about": "(Nucleic Acids Research, 2019)",
  "key": {"P protein": {"target": "T1, P protein (Thermotoga maritima, UniProt Q9X1H4)", "T1 construct": "GST (cleaved yes); made in house; host or cells: E. coli BL21(DE3)pLysS", "T1 sequence (Q9X1H4 1-117)": "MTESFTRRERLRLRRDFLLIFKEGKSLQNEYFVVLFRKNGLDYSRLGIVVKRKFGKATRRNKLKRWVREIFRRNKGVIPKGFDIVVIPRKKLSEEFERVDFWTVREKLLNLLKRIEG", "experiment": "Binding hindrance of the 5′ RNA leader to the P protein (BLI)", "parameters": "species or system T. maritima", "conditions": "compound 100 μM, 5′ RNA leader 5 μM", "procedure": "A 5′ RNA leader sequence with 10-bases 5′-GGAAAAAGAU-3′ was purchased from IDT and used at a concentration of 5 μM. This sequence is the same used to obtain the crystal structure of the RNase P holoenzyme ([19]). The His-tagged P protein was immobilized on Ni-NTA biosensors at 0.05 mg/ml (3.4 μM). […] The steps performed on the assay and their periods were: P protein immobilization (400 s), wash (100 s), baseline […] (1000 rpm), compound association (800 s), compound dissociation (200 s) (500 rpm), baseline (100 s), 5′ leader association (200 s), 5′ leader dissociation (200 s) (1000 rpm). The assay was performed at 30°C. The compounds were used at 100 μM throughout. All assay steps were performed in 20 mM HEPES pH 7.4, 100 mM ammonium acetate, 10 mM MgCl2, 5% DMSO.\n5 ′ RNA leader. (A) Experimental design of 5′ RNA leader binding hindrance experiments. Figures B-F are based on the analysis region depicted in panel A, where association and dissociation of the 5′ RNA leader to the P protein (TmP) is measured over time. P protein at 3.5 µM was immobilized on Ni-NTA biosensors for 300 s, while compounds were assayed at 100 µM and the […]\nbinding, in contrast with hematein (E) and purpurin (F).\n(1 picture or pasted object on this page, not shown here)"}, "[1]": {"target": "T2, RNase P holoenzyme from Thermotoga maritima (Thermotoga maritima, UniProt Q9X1H4)", "T2 construct": "made in house", "T2 sequence (Q9X1H4 1-117)": "T1 sequence (Q9X1H4 1-117)", "experiment": "Real-time fluorescence-based (FRET) RNase P activity assay with minihelix (Mh) substrate", "assay_type": "biochemical", "conditions": "for IC50: fluorescent Mh substrate 270 nM, holoenzyme 33 nM, 10% DMSO, 37°C, 400 mM AmOAc, 100 mM MgCl2", "how_it_was_run": "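Reconstituted holoenzyme (P RNA:P protein 1:1.1) at 33 nM with 270 nM minihelix labelled Alexa Fluor 488/BHQ quencher, in buffer H (pH 7.4, 400 mM AmOAc, 100 mM MgCl2), 10% DMSO, 37°C. Cleavage followed as fluorescence increase (ex 485, em 535 nm); initial velocities from linear slopes.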"}, "[2]": {"system": "3'-biotinylated minihelix (Mh; pMini3bpUG) (RNA, hairpin) GAUCUGAAUGCGGAAACGCGCCAC", "experiment": "biolayer interferometry", "conditions": "Mg2+ 10 mM, NH4+ 100 mM (ammonium acetate); 20 mM HEPES pH 7.4, DMSO, 30°C; highest concentration tested 1 mM"}},
  "note": "“Also recorded” adds a separate entry of the source.",
  "data": [
    {"smiles": "O=C1C=C2CC3(O)COc4c(ccc(O)c4O)C3=C2C=C1O", "note": "(stereo not drawn) [Hematein, 3,4,6a,10-tetrahydroxy-6a,7-dihydroindeno[2,1-c]chromen-9(6H)-one]", "values": [
      {"measurement": "Hindrance of 5′ RNA leader binding to the P protein", "setting": "P protein", "result": "hinder the binding of the P protein"},
      {"measurement": "Hindrance of 5′ RNA leader binding to the P protein", "setting": "P protein; listed as hematein", "result": "displayed leader-binding hindrance"},
      {"measurement": "IC50", "setting": "[1]", "result": "4.5 ± 0.9", "unit": "µM"},
      {"measurement": "binding", "setting": "[2]", "result": "no"}
    ]},
    {"smiles": "O=C1C=CC(=O)c2c(O)cccc21", "note": "[Juglone, 5-hydroxy-1,4-naphthoquinone]", "values": [
      {"measurement": "Hindrance of 5′ RNA leader binding to the P protein", "setting": "P protein", "result": "do not impede the leader binding"},
      {"measurement": "IC50", "setting": "[1]", "result": "12.8 ± 1.9", "unit": "µM"},
      {"measurement": "binding", "setting": "[2]", "result": "no"}
    ]},
    {"smiles": "O=C1c2ccccc2C(=O)c2c(O)c(O)cc(O)c21", "note": "[Purpurin, 1,2,4-trihydroxyanthraquinone]", "values": [
      {"measurement": "Hindrance of 5′ RNA leader binding to the P protein", "setting": "P protein", "result": "hinders the binding of the P protein to the 5′ RNA leader"},
      {"measurement": "Hindrance of 5′ RNA leader binding to the P protein", "setting": "P protein; listed as purpurin", "result": "hinder the binding of the P protein; also recorded: interferes with the binding of the leader to the P protein"},
      {"measurement": "Ki", "setting": "[1]; competitive inhibition model, varying fluorescent Mh substrate", "result": "1.9 ± 0.4", "unit": "µM"},
      {"measurement": "IC50", "setting": "[1]", "result": "96.2 ± 21.7", "unit": "µM"},
      {"measurement": "binding", "setting": "[2]", "result": "no"}
    ]}
  ]
}
